# Reference: US20110306572A1, “COMBINATION THERAPY FOR THE TREATMENT OF CANCER USING COX-2 INHIBITORS AND DUAL InHIBITORS OF EGFR [ErbB1] AND HER-2 [ErbB2]” (TRAGARA PHARMACEUTICALS, INC, priority 2007, published 2011)
# Key:
# [1] = human, in vivo
# [2] = patients taking lapatinib; cited from earlier work
Structure (SMILES),gastric or duodenal toxicity [1],"patients with common side effects (rash, diarrhea, fatigue, palmar plantar erythrodysesthesia, nausea and vomiting) [2]"
CCOc1ccc(-c2cc(C)cn2-c2ccc(S(N)(=O)=O)cc2)cc1 [2-(4-ethoxyphenyl)-4-methyl-1-(4-sulfamoylphenyl)-pyrrole],no increase in gastric or duodenal toxicity,–
"CS(=O)(=O)CCNCc1ccc(-c2ccc3ncnc(Nc4ccc(OCc5cccc(F)c5)c(Cl)c4)c3c2)o1 [Lapatinib, N-(3-chloro-4-{[(3-fluorophenyl)methyl]oxy}phenyl)-6-[5-({[2-methylsulfonyl)ethyl]amino}methyl)-2-furanyl]-4-quinazolinamine bis(4-methylbenzenesulfonate) monohydrate, bis(4-methylbenzenesulfonate) …]",–,greater than 20 % of patients
